Test results as given in the supplement of paper PMC11208160.

Assay: recombinant barcode read abundance after kanamycin selection (control-corrected) (log10(CPM+1)); higher = more efficient recombination; sequences stand for … in AGTGCAGAGAAAATCGGCCAGTTTTCTCTGCCTGCAGTCCGCATGCCGT…AGATTTATGCAGCGGACTGCCTTTCTCCCAAAGTGATAAACCGGACAGTATCATGGACCGGTTTTCCCGGTAATCCGTATTTGCAAGGTTGGTTTCACT; site = the 11-nt target
Outline: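 Pooled oligos, each joining a target to an IS621 bridge RNA target-binding loop, were cloned and co-electroporated with a donor plasmid into E. coli. Selective plates carried chloramphenicol/ampicillin/kanamycin and 0.1 mM IPTG, while chloramphenicol/ampicillin LB agar served as control, with two replicates of each. Recombination efficiency rests on averaged, control-corrected counts per million of barcodes at recombinant junctions, shown as log10(CPM+1).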
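Further: IS621 recombinase and bridge RNA in Escherichia coli cells.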

| Sequence | recombinant barcode read abundance (log10) |
| --- | --- |
| CGACGTCCTTGGGTTCTAACCTGTTGCGG (site TGAAGTCCTCC) | 0.00826 |
| CGACTTACTTGGGTTCTAACCTGTTGCAT (site ACGGGCTCTGA) | 0.103 |
| CGACTTACTTGGGTTCTAACCTGTTGCAT (site CGACTTACTAT) | 0.0348 |
| CGAGCTCCTTGGGTTCTAACCTGTTGCCT (site CGAGCTCCTAA) | 0.763 |
| CGAGCTCCTTGGGTTCTAACCTGTTGCCT (site CGAGCTCCTAC) | 0.582 |
| CGAGCTCCTTGGGTTCTAACCTGTTGCCT (site CGAGCTCCTAG) | 1.24 |
| CGAGCTCCTTGGGTTCTAACCTGTTGCCT (site CGAGCTCCTAT) | 0.157 |
| CGAGGCCCTTGGGTTCTAACCTGTTGCTT (site CGAGGCCCTAA) | 1.93 |
| CGAGGCCCTTGGGTTCTAACCTGTTGCTT (site GTCCTATCTGT) | 0.0488 |
| CGAGTGACTTGGGTTCTAACCTGTTGCCA (site CGAGTGACTTG) | 0.906 |
| CGAGTGACTTGGGTTCTAACCTGTTGCCA (site TTCCGTCCTAA) | 0.382 |
| CGATCGACTTGGGTTCTAACCTGTTGCAG (site CGACCGACTCT) | 0.401 |
| CGATCGACTTGGGTTCTAACCTGTTGCAG (site CGATCGACTCT) | 0.809 |
| CGATCGCCTTGGGTTCTAACCTGTTGCCT (site CGATCGCCTAG) | 0.339 |
| CGATCGCCTTGGGTTCTAACCTGTTGCCT (site GGACCGCCTAG) | 0.0952 |
| CGATGTGCTTGGGTTCTAACCTGTTGCCT (site CGATGTCCTAG) | 0.334 |
| CGATGTGCTTGGGTTCTAACCTGTTGCCT (site CGATGTGCTAG) | 0.535 |
| CGATTTCCTTGGGTTCTAACCTGTTGCAT (site CGATTTCCTAG) | 0 |
| CGATTTCCTTGGGTTCTAACCTGTTGCAT (site CGATTTCCTAT) | 0.0511 |
| CGCCATCCTTGGGTTCTAACCTGTTGCAT (site CGCCATCCTAT) | 0.134 |
| CGCCATCCTTGGGTTCTAACCTGTTGCAT (site CGCCCTCCTAT) | 0.227 |
| CGCCATCCTTGGGTTCTAACCTGTTGCAT (site CGCCGTCCTAT) | 0.0349 |

| Sequence | recombinant barcode read abundance (log10) |
| --- | --- |
| CGCCATCCTTGGGTTCTAACCTGTTGCAT (site CGCCTTCCTAT) | 0.569 |
| CGCCCACCTTGGGTTCTAACCTGTTGCCT (site CGCCCACCTAG) | 0.0145 |
| CGCCCACCTTGGGTTCTAACCTGTTGCCT (site CTCCAACCTAG) | 0 |
| CGCCCTACTTGGGTTCTAACCTGTTGCCT (site CGACCTGCTAG) | 0.236 |
| CGCCCTACTTGGGTTCTAACCTGTTGCCT (site CGCCCTACTAG) | 0.239 |
| CGCCGTCCTTGGGTTCTAACCTGTTGCAT (site CGCCATCCTAT) | 0.0426 |
| CGCCGTCCTTGGGTTCTAACCTGTTGCAT (site CGCCCTCCTAT) | 0.103 |
| CGCCGTCCTTGGGTTCTAACCTGTTGCAT (site CGCCGTCCTAT) | 0.279 |
| CGCCGTCCTTGGGTTCTAACCTGTTGCAT (site CGCCTTCCTAT) | 0.099 |
| CGCCTAGCTTGGGTTCTAACCTGTTGCCT (site CGCCTAGCTAG) | 0.206 |
| CGCCTAGCTTGGGTTCTAACCTGTTGCCT (site CTCCTACCTAG) | 0.0925 |
| CGCCTCCCTTGGGTTCTAACCTGTTGCCT (site CGCCTCACTAG) | 0.179 |
| CGCCTCCCTTGGGTTCTAACCTGTTGCCT (site CGCCTCCCTAG) | 0.446 |
| CGCCTCCCTTGGGTTCTAACCTGTTGCCT (site CGCCTCGCTAG) | 0 |
| CGCCTCCCTTGGGTTCTAACCTGTTGCCT (site CGCCTCTCTAG) | 0.0882 |
| CGCCTCGCTTGGGTTCTAACCTGTTGCCT (site CGCCTCACTAG) | 0.07 |
| CGCCTCGCTTGGGTTCTAACCTGTTGCCT (site CGCCTCCCTAG) | 0.16 |
| CGCCTCGCTTGGGTTCTAACCTGTTGCCT (site CGCCTCGCTAG) | 0.0366 |
| CGCCTCGCTTGGGTTCTAACCTGTTGCCT (site CGCCTCTCTAG) | 0.259 |
| CGCGATCCTTGGGTTCTAACCTGTTGCCT (site CGCGATCCTAG) | 0.431 |
| CGCGATCCTTGGGTTCTAACCTGTTGCCT (site CGCGCTCCTAG) | 0.0201 |
| CGCGATCCTTGGGTTCTAACCTGTTGCCT (site CGCGGTCCTAG) | 0.468 |

| Sequence | recombinant barcode read abundance (log10) |
| --- | --- |
| CGCGATCCTTGGGTTCTAACCTGTTGCCT (site CGCGTTCCTAG) | 0.265 |
| CGCGCAACTTGGGTTCTAACCTGTTGCCT (site CGCGCAACTAG) | 0.0454 |
| CGCGCAACTTGGGTTCTAACCTGTTGCCT (site CGCGTAACTAG) | 0.185 |
| CGCGGGTCTTGGGTTCTAACCTGTTGCTT (site CGCGAATCTAA) | 0.236 |
| CGCGGGTCTTGGGTTCTAACCTGTTGCTT (site CGCGGGTCTAA) | 0.88 |
| CGCGTTCCTTGGGTTCTAACCTGTTGCCT (site CGCGATCCTAG) | 0.262 |
| CGCGTTCCTTGGGTTCTAACCTGTTGCCT (site CGCGCTCCTAG) | 0.608 |
| CGCGTTCCTTGGGTTCTAACCTGTTGCCT (site CGCGGTCCTAG) | 0.542 |
| CGCGTTCCTTGGGTTCTAACCTGTTGCCT (site CGCGTTCCTAG) | 0.197 |
| CGCTGACCTTGGGTTCTAACCTGTTGCTT (site CGCTGACCTAA) | 0.0663 |
| CGCTGACCTTGGGTTCTAACCTGTTGCTT (site CGCTGCCCTAA) | 0.208 |
| CGCTGACCTTGGGTTCTAACCTGTTGCTT (site CGCTGGCCTAA) | 0.116 |
| CGCTGACCTTGGGTTCTAACCTGTTGCTT (site CGCTGTCCTAA) | 0.231 |
| CGCTGGTCTTGGGTTCTAACCTGTTGCCT (site CGCTAGTCTAG) | 0.309 |
| CGCTGGTCTTGGGTTCTAACCTGTTGCCT (site CGCTCGTCTAG) | 0.145 |
| CGCTGGTCTTGGGTTCTAACCTGTTGCCT (site CGCTGGTCTAG) | 0.0358 |
| CGCTGGTCTTGGGTTCTAACCTGTTGCCT (site CGCTTGTCTAG) | 0.111 |
| CGCTTGTCTTGGGTTCTAACCTGTTGCTT (site CACTTGACTAA) | 0.0517 |
| CGCTTGTCTTGGGTTCTAACCTGTTGCTT (site CGCTTGTCTAA) | 0.0711 |
| CGGAACTCTTGGGTTCTAACCTGTTGCCT (site AGGAACTCTAG) | 0.274 |
| CGGAACTCTTGGGTTCTAACCTGTTGCCT (site CGGAACTCTAG) | 1.85 |
| CGGAATCCTTGGGTTCTAACCTGTTGCCT (site CGGAATCCTAA) | 0.198 |

| Sequence | recombinant barcode read abundance (log10) |
| --- | --- |
| CGGAATCCTTGGGTTCTAACCTGTTGCCT (site CGGAATCCTAC) | 0.00785 |
| CGGAATCCTTGGGTTCTAACCTGTTGCCT (site CGGAATCCTAG) | 0.864 |
| CGGAATCCTTGGGTTCTAACCTGTTGCCT (site CGGAATCCTAT) | 0.0895 |
| CGGAATTCTTGGGTTCTAACCTGTTGCCT (site CGGAATTCTAG) | 1.17 |
| CGGAATTCTTGGGTTCTAACCTGTTGCCT (site CGTTATTCTAG) | 0.743 |
| CGGACGGCTTGGGTTCTAACCTGTTGCCT (site CGGACGACTAG) | 0.376 |
| CGGACGGCTTGGGTTCTAACCTGTTGCCT (site CGGACGCCTAG) | 0.285 |
| CGGACGGCTTGGGTTCTAACCTGTTGCCT (site CGGACGGCTAG) | 0.215 |
| CGGACGGCTTGGGTTCTAACCTGTTGCCT (site CGGACGTCTAG) | 0.271 |
| CGGACGTCTTGGGTTCTAACCTGTTGCCT (site CGGACGACTAG) | 0.12 |
| CGGACGTCTTGGGTTCTAACCTGTTGCCT (site CGGACGCCTAG) | 0.0491 |
| CGGACGTCTTGGGTTCTAACCTGTTGCCT (site CGGACGGCTAG) | 0.101 |
| CGGACGTCTTGGGTTCTAACCTGTTGCCT (site CGGACGTCTAG) | 1.45 |
| CGGAGCCCTTGGGTTCTAACCTGTTGCAG (site CGGAGCCCTCT) | 2.06 |
| CGGAGCCCTTGGGTTCTAACCTGTTGCAG (site CTGAGCCCTAT) | 0.143 |
| CGGCACACTTGGGTTCTAACCTGTTGCCT (site CGACACACTAG) | 0.239 |
| CGGCACACTTGGGTTCTAACCTGTTGCCT (site CGCCACACTAG) | 0.0516 |
| CGGCACACTTGGGTTCTAACCTGTTGCCT (site CGGCACACTAG) | 0.761 |
| CGGCACACTTGGGTTCTAACCTGTTGCCT (site CGTCACACTAG) | 0.00935 |
| CGGCACACTTGGGTTCTAACCTGTTGCTT (site CGGCACACTAA) | 0.778 |
